Source: patent publication US10676462B2, “Quinoline derivative” (ONO PHARMACEUTICAL CO., LTD., priority 2013, dated 2020)

Key:
[1] = target: T1, Ba/F3 Axl (Homo sapiens, UniProt P30530); assay: Proliferation suppression rate using mouse pro-B cell line (Ba/F3 Axl) stably expressing Axl; type: cell-based; conditions: Ba/F3 Axl cells, 48 hours, CellTiter-Glo; read-out: IC50 value, proliferation suppression of Ba/F3 Axl
T1 sequence (P30530 1-894): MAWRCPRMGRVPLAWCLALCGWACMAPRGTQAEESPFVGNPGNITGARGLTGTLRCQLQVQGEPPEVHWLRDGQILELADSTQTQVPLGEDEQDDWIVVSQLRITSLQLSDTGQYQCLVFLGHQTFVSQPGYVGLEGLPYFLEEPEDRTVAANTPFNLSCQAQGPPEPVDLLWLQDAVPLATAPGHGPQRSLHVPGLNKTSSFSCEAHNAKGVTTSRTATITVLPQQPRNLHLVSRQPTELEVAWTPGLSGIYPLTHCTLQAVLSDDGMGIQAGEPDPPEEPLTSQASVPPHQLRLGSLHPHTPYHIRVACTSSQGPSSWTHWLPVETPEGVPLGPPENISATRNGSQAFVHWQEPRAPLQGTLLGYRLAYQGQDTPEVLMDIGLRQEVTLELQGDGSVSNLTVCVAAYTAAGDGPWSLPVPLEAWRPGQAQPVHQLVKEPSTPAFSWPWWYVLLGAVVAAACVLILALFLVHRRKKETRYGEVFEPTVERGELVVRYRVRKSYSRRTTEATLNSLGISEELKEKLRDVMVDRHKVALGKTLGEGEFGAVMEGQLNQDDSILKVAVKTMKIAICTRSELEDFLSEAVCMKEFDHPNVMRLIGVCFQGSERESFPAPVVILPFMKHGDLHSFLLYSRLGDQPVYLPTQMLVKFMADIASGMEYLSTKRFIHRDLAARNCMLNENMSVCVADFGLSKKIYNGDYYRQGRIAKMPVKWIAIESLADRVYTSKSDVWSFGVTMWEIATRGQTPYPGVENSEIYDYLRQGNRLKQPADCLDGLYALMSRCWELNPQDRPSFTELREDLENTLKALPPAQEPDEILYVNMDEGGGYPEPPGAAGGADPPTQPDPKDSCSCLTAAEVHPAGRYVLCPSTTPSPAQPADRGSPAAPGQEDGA
Method: Biological Example 2: Measurement of Proliferation Suppression Rate by Using Mouse Pro-B Cell Line (Ba/F3 Axl) Stably Expressing Axl
A 0.1 mmol/L DMSO solution of the test compound was dispensed into a 96-well plate, and a 3-fold dilution series was prepared using DMSO. DMSO solutions of test compounds, having various concentrations, were further 500-fold diluted with a RPMI1640 medium (containing 10% HI-FBS, 1% penicillin) and a diluted solution of the test compound having […] with respect to the final concentration was prepared. In each well of the 96-well plate (BD Biosciences) for measurement, 50 μL of a RPMI medium was added to the Blank group, 50 μL of a RPMI medium containing 0.2% DMSO was added to the medium group, and 50 μL of the diluted solution of the test compound was added to the test compound group, respectively. Ba/F3 Axl was diluted with a medium to have a density of 2×10^5 cells/mL to prepare a cell suspension. In each well of the 96-well plate for measurement, 50 μL each of the RPMI medium was added to the Blank group, and 50 μL each of the cell suspension to the medium group and the test compound group, respectively, and the groups were stood still at 37° C. at 5% CO2 for 48 hours. After standing still, Relative Light Unit (RLU) was measured by using CELLTITER-GLO (registered trademark) LUMINESCENT CELL VIABILITY ASSAY (Promega). The measurement was carried out according to the attached instruction. To each well, 100 μL each of light-emitting solution was added. The plate was stirred at room temperature for 3 min and then stool still at room temperature with light shielded for 10 min, and RLU was measured by using Microplate Reader (SpectraMax M5e, Molecular Devices). The average values of RLU of the Blank group and the medium group were respectively calculated, and the proliferation suppression rate of the test compound group was calculated. Proliferation suppression rate (%)={1−(RLU of test compound group−A)/(B−A)}×100 [Math. 2] A: average value of RLU of Blank group B: average value of RLU of medium group
A value of 50% inhibition rate (IC50 value) of the test compound was calculated from the inhibition curve based on the inhibition rate in each concentration of the test compound.

[2] = target: T2, Axl enzyme (Homo sapiens, UniProt P30530); assay: Measurement of an Axl inhibitory activity (LanthaScreen TR-FRET, in vitro test); type: biochemical
T2 construct: a solution containing 400 ng/mL Axl enzyme was prepared
T2 sequence (P30530 26-894): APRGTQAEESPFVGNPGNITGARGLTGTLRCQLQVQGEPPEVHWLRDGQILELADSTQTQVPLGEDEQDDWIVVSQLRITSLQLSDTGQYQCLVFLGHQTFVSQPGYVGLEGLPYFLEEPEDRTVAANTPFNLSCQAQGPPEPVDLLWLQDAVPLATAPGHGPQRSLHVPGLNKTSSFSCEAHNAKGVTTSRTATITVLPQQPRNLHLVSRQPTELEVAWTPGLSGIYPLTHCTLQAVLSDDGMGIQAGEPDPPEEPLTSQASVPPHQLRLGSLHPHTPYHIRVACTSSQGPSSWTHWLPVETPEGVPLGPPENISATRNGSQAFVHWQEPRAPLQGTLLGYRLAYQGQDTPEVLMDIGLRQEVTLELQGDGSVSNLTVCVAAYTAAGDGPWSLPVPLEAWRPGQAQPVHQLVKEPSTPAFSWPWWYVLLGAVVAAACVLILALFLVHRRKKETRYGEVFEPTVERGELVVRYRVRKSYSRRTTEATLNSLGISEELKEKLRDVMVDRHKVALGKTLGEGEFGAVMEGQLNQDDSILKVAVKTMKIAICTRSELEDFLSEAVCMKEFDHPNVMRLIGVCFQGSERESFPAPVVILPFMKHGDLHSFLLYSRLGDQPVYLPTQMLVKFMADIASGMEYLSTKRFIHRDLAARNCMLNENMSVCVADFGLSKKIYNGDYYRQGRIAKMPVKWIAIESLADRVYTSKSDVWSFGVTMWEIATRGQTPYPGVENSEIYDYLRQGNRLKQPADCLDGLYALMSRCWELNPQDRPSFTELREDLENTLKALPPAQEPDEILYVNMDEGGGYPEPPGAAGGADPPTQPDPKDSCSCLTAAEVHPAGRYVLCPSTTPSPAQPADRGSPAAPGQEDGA
Method: Biological Example 1: Measurement of an Axl Inhibitory Activity (In Vitro Test)
An Axl enzyme inhibitory activity was measured by using LanthaScreen (registered trademark) system (Invitrogen) based on the attached instruction. The reagents used are shown below.
Reaction buffer solution: a solution containing 50 mmol/L HEPES (pH7.5), 0.01% Brij35, 10 mmol/L MgCl2 and 1 mmol/L EGTA was prepared by using purified water.
Test substance solution: a solution containing a test compound of 5-fold concentration with respect to the final concentration was prepared by 20-fold diluting a DMSO solution of test compound of each concentration with the reaction buffer solution.
Enzyme solution: a solution containing 400 ng/mL Axl enzyme was prepared by using the reaction buffer solution.
Substrate solution: a solution containing 45 μmmol/L ATP and 500 nmmol/L Fluorescein-Poly GT (Invitrogen) was prepared by using the reaction buffer solution.
Detection solution: a solution containing 20 mM EDTA and 4 nM PY20 (Invitrogen) was prepared by using Dilution B (Invitrogen).
A 10 mmol/L DMSO solution of the test compound was dispensed into a 96-well plate (Nunc), and, furthermore, a 3-fold dilution series was prepared using DMSO. In each well of the 96-well plate for measurement, 5 μL each of the reaction buffer solution containing DMSO was added to a Blank group and a medium group, and 5 μL of the test substance solution was added to the test substance group, respectively. Next, 10 μL/well of the reaction buffer solution was added to the Blank group, and 10 μL/well each of the enzyme solution was added to the medium group and the test compound group, followed by stirring at room temperature for 10 min. After the completion of stirring, 10 μL each of the substrate solution was added into each well, followed by stirring at room temperature with light shielded for one hour. After the completion of reaction, 25 μL each of the detection solution was added to each well, and stood still at room temperature with light shielded for 30 min. After standing sill, fluorescence intensity at 520 nm and 495 nm at the time of irradiation with exciting light of 340 nm was measured by using Analyst GT (Molecular Devices). The phosphorylation of the artificial substrate was quantified by Time-resolved Fluorescence Resonance Energy Transfer (TR-FRET). TR-FRET ratio was calculated by dividing 520 nm fluorescence signal by 495 nm fluorescence signal for each well, and the inhibition rate (%) in the test compound group was calculated based on the following mathematical formula. Inhibition rate (%)=[1−(TR-FRET ratio of test compound group−A)/(B−A)×100 [Math. 1] A: average value of TR-FRET ratios of Blank group B: average value of TR-FRET ratios of medium group
Values of 50% inhibition rate (IC50 values) of the test compound were calculated from the inhibition curve based on the inhibition rate of the test compounds in each concentration.

[3] = target: KDR (Homo sapiens, UniProt P35968); assay: Evaluation of kinase selectivity (in vitro test), KDR; type: biochemical; conditions: Axl selective inhibitory activity with respect to KDR, ratio of IC50 values
Sequence of KDR (P35968 20-1356): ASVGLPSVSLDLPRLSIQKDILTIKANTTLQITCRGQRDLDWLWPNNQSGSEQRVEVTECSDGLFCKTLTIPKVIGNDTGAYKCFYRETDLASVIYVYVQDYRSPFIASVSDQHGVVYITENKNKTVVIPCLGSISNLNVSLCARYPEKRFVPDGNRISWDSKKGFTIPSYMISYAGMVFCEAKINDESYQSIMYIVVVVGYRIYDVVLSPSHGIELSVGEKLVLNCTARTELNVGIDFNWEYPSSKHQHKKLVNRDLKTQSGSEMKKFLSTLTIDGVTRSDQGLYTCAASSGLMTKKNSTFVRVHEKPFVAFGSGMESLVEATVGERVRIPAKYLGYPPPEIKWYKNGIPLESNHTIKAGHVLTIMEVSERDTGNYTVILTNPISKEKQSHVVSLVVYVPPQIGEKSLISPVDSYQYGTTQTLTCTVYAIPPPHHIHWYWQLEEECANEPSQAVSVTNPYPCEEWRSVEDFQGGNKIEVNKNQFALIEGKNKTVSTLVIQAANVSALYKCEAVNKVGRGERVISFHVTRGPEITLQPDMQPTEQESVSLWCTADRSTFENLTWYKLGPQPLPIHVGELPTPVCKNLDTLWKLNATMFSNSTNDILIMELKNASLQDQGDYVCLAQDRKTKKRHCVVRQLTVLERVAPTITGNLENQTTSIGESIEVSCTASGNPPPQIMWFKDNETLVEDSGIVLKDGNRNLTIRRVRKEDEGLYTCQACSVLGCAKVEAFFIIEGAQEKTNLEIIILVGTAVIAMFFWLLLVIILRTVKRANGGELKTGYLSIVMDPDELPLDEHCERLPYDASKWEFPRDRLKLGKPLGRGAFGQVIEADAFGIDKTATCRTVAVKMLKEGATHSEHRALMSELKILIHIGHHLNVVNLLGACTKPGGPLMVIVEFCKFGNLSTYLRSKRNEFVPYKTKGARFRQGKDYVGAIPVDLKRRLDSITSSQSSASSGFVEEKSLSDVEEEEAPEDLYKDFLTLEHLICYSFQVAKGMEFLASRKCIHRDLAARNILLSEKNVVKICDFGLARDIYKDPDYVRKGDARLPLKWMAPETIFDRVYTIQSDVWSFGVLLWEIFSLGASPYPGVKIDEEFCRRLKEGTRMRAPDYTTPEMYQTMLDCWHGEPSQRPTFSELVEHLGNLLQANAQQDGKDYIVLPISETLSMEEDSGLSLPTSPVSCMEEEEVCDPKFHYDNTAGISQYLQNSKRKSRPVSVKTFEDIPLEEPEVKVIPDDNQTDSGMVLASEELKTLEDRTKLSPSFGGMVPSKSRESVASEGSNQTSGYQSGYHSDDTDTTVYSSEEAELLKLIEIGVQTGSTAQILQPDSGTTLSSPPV
Method: Biological Example 3: Evaluation of Kinase Selectivity (In Vitro Test)
Similar to Biological Example 1, values of 50% inhibition rate (IC50 value) with respect to various kinases (KDR, DDR1, FLT4, and ROS) of the test compound were measured. The Axl selective inhibitory activity of the test compound with respect to kinases, for example, KDR, was calculated based on the above-mentioned ratio of the IC50 values. As the test compound, for the compound of the present invention, the compounds of Examples 5, 5(1), 17(2), and 23(2) were used, and for the comparative compounds, the compound of Example 5 (Comparative compound C) and the compound of Example 92 (Comparative compound D) described in Patent Literature 5, having the following structure, were used.

| GI50 [1] | IC50 [2] | KDR [IC50]/Axl [IC50] [3] | SMILES |
| --- | --- | --- | --- |
| > 10 µM | > 10 µM | – | COc1cc2nccc(Oc3ccc(NC(=O)c4cc5ccccc5[nH]c4=O)cc3)c2cc1OC [Comparative compound B, reference compound] |
| 0.0078 µM | 0.0043 µM | – | COc1cc2nccc(Oc3ccc(NC(=O)c4cc5c(n(CC(C)(C)C)c4=O)CCCC5=O)nc3)c2cc1OC [Example 5(6), N-{5-[(6,7-dimethoxy-4-quinolinyl)oxy]-2-pyridinyl}-1-(2,2-dimethylpropyl)-2,5-dioxo-1,2,5,6,7,8-hexahydro-3-quinolinecarboxamide] |
| – | – | about 0.2 times | COc1cc2c(Oc3ccc(NC(=O)c4cccc5cccnc45)cc3F)ccnc2cc1OCCCN1CCOCC1 [Comparative compound C, reference compound] |
| 0.62 µM | > 10 µM | – | COc1cc2nccc(Oc3ccc(NC(=O)c4nn(C)c5ccccc45)cc3F)c2cc1OC [Comparative compound A, reference compound] |
| – | – | about 28 times | COc1cc2c(Oc3ccc(NC(=O)c4ccnn(-c5ccc(F)cc5)c4=O)cn3)ccnc2cc1OCCCN1CCOCC1 [Comparative compound D, reference compound] |
